Molecules are shown by their SMILES. ≈ marks a conversion by molar mass, not a printed value. Bounds are passed on as bounds.

The subject of one series is Haemophilus influenzae. The series is described as follows: Antibacterial activity against Haemophilus influenzae SR27914 clinical isolate assessed as […] by CLSI broth microdilution method. Type of series: functional. (In general: Dilution methods test growth across graded concentrations, often in twofold steps.)
Series [1] concerns Staphylococcus aureus. The experiment in a line: Antibacterial activity against Staphylococcus aureus SR20549 clinical isolate assessed as […] by CLSI broth microdilution method. The format is functional.
The subject of a further series is Enterococcus faecium. The series is described as follows: Antibacterial activity against Enterococcus faecium SR7940 clinical isolate assessed as […] by CLSI broth microdilution method. The format is functional.
Series [2] deals with Staphylococcus aureus. The series is described as follows: Antibacterial activity against methicillin-resistant Staphylococcus aureus SR3637 clinical isolate infected in iv dosed JCL/ICR systemic infection model assessed as mortality administered after 1 hr of infection measured for 7 days. The format is functional.
For a further series, the system named is Enterococcus faecalis. The series is described as follows: Antibacterial activity against Enterococcus faecalis SR1004 clinical isolate assessed as […] by CLSI broth microdilution method. The format is functional.
The test system of series [3] is Streptococcus pneumoniae. The experiment in a line: Antibacterial activity against Streptococcus pneumoniae SR26207 clinical isolate assessed as […] by CLSI broth microdilution method. The format is functional.
Series [4] concerns Staphylococcus aureus. The series is described as follows: Antibacterial activity against Staphylococcus aureus Smith clinical isolate assessed as […] by CLSI broth microdilution method. Type of series: functional.
Series [5] deals with Staphylococcus aureus. The series is described as follows: Antibacterial activity against methicillin-resistant Staphylococcus aureus SR3637 clinical isolate assessed as […] by CLSI broth microdilution method. The format is functional.
In series [6] the test system is Staphylococcus aureus. The experiment in a line: Ratio of linezolid MIC to compound MIC for Staphylococcus aureus Smith clinical isolate. Type of series: functional.
In series [7] the test system is Staphylococcus aureus. The experiment in a line: Ratio of linezolid MIC to compound MIC for Staphylococcus aureus SR20549 clinical isolate. The format is functional.
Series [8] relates to Streptococcus pneumoniae. The experiment in a line: Antibacterial activity against penicillin-resistant Streptococcus pneumoniae SR11031 clinical isolate assessed as […] by CLSI broth microdilution method. The format is functional.
The test system of the next series is Moraxella catarrhalis. The experiment in a line: Antibacterial activity against Moraxella catarrhalis SR26840 clinical isolate assessed as […] by CLSI broth microdilution method. Type of series: functional.
The test system of series [9] is Staphylococcus aureus. The series is described as follows: Antibacterial activity against methicillin-resistant Staphylococcus aureus SR3637 clinical isolate infected in po dosed JCL/ICR systemic infection model assessed as mortality administered after 1 hr of infection measured for 7 days. Type of series: functional.
In series [10] the test system is Staphylococcus aureus. The series is described as follows: Antibacterial activity against linezolid-resistant Staphylococcus aureus NRS271 clinical isolate harboring G2576T mutation in peptidyl transferase center domain V of 23S rRNA gene assessed as […] by CLSI broth microdilution method. Type of series: functional.
The target in the next series is Cytochrome P450 2C9 (Homo sapiens, UniProt P11712). The experiment in a line: Inhibition of human CYP2C9 assessed as tolbutamide hydroxylation after 20 mins by LC-MS/MS analysis. The format is ADME.
A further series addresses T1, MAO-A (Rattus norvegicus, UniProt P21396).
T1 sequence (P21396 whole entry): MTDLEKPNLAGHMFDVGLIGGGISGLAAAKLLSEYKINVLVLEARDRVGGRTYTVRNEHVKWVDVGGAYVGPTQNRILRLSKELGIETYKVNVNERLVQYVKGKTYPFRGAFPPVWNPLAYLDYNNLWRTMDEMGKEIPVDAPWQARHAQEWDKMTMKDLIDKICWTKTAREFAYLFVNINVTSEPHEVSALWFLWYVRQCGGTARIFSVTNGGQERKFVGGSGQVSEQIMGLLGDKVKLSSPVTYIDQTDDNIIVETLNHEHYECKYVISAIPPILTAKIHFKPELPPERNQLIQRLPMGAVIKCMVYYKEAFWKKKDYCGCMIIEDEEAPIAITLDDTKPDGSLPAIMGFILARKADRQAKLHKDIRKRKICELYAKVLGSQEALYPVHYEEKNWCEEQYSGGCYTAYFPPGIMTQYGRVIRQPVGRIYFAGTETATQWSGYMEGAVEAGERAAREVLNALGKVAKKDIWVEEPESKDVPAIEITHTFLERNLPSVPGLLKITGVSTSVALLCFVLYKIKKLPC
The series is described as follows: Inhibition of rat forebrain MAO-A using [14C]5-HT as substrate at 30 uM preincubated for 20 mins followed by substrate addition measured after 5 mins by liquid scintillation counting analysis. To be noted: probe [14C]5-HT.

The next series deals with Cytochrome P450 3A4 (Homo sapiens, UniProt P08684). The experiment in a line: Inhibition of human CYP3A4 assessed as terfenadine hydroxylation after 20 mins by LC-MS/MS analysis. The format is ADME.
A further series concerns the target T2, Cytochrome P450 1A2 (Homo sapiens, UniProt P05177).
T2 sequence (P05177 whole entry): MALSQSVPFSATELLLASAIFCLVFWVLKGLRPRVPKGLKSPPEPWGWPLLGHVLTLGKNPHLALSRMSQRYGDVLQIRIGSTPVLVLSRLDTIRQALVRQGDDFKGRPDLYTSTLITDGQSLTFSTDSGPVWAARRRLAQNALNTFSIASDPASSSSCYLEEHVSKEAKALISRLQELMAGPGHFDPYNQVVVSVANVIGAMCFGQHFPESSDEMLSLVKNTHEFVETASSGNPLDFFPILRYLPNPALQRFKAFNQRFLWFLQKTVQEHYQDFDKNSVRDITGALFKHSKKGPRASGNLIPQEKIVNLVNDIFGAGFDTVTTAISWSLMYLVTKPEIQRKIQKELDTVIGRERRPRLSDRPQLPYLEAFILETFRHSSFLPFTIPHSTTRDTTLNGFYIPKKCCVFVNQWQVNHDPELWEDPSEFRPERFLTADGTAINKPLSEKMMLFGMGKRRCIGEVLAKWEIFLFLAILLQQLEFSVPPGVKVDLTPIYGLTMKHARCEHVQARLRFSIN
The experiment in a line: Inhibition of human CYP1A2 assessed as ethoxyresorufin O-deethylation after 20 mins by fluorescence plate reader. Type of series: ADME.

A further series has as its target Cytochrome P450 2D6 (Homo sapiens, UniProt P10635). The series is described as follows: Inhibition of human CYP2D6 assessed as dextromethorphan O-demethylation after 20 mins by LC-MS/MS analysis. Type of series: ADME.
The next series deals with T3, MAO-B (Rattus norvegicus, UniProt P19643).
T3 sequence (P19643 whole entry): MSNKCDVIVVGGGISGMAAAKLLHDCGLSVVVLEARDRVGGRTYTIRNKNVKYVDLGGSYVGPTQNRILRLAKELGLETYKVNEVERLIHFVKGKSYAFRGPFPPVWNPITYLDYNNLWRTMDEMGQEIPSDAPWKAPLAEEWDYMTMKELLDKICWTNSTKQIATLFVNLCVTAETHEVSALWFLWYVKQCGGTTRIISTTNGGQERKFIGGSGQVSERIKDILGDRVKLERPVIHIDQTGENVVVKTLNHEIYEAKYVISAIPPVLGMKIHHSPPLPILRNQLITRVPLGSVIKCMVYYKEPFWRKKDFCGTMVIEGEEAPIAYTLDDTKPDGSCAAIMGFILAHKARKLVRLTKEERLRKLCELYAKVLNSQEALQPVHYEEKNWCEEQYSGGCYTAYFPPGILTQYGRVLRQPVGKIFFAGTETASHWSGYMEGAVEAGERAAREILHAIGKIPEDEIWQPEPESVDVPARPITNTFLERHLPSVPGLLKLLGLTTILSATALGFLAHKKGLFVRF
The series is described as follows: Inhibition of rat forebrain MAO-B using [14C]PEA as substrate at 30 uM preincubated for 20 mins followed by substrate addition measured after 10 mins by liquid scintillation counting analysis. To be noted: probe [14C]PEA.

Chain of Cytochrome P450 2C9 (P11712 whole entry): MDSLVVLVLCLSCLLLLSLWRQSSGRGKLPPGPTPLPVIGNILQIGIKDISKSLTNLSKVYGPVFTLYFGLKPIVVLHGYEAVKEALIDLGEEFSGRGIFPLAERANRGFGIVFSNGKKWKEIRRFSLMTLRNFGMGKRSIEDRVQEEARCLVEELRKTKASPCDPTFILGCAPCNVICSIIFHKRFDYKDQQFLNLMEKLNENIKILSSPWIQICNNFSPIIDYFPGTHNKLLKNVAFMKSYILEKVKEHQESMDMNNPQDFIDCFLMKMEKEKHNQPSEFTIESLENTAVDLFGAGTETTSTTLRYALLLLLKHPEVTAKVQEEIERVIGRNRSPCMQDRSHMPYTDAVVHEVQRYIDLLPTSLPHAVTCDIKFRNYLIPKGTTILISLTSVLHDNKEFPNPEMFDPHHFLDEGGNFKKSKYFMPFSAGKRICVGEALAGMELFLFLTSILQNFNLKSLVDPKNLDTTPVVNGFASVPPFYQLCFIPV
Chain of Cytochrome P450 2D6 (P10635 whole entry): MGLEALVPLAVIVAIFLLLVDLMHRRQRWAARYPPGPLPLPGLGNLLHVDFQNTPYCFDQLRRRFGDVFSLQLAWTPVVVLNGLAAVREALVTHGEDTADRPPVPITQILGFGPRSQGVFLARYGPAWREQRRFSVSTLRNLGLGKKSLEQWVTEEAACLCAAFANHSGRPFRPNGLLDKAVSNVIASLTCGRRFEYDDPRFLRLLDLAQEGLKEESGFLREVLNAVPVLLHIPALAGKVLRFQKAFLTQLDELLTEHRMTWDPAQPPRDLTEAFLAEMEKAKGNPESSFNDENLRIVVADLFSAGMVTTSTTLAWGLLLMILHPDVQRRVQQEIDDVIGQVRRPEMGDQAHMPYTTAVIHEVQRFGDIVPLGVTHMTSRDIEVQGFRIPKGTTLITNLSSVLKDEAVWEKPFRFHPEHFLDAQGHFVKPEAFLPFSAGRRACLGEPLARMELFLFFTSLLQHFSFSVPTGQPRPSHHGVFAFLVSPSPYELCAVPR
Chain of Cytochrome P450 3A4 (P08684 whole entry): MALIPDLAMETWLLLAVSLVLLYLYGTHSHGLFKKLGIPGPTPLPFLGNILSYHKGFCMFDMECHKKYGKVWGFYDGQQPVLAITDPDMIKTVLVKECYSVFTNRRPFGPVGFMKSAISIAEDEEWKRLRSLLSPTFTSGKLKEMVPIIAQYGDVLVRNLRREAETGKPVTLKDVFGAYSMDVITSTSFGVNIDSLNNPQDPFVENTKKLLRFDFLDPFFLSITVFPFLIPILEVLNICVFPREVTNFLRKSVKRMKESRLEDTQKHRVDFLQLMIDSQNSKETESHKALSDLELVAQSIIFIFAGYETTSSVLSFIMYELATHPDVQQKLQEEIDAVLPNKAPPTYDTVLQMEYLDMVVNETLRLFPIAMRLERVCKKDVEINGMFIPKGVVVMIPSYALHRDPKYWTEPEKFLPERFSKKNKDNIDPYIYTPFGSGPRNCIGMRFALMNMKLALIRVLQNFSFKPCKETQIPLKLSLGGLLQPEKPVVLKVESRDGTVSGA

The term ED50 denotes the midpoint of the dose-response relation. Consider `CC(=O)NC[C@H]1CN(c2ccc(-c3ccc4nccn4c3)c(F)c2)C(=O)O1`, for which the MIC in the series with Haemophilus influenzae is 4 µg/mL (≈ 10.9 µM); with Staphylococcus aureus [1], 0.5 µg/mL (≈ 1.36 µM); in the series with Enterococcus faecium it was 0.25 µg/mL (≈ 0.679 µM); in the series with Enterococcus faecalis, 0.5 µg/mL (≈ 1.36 µM); with Streptococcus pneumoniae [3], no more than 0.063 µg/mL; with Staphylococcus aureus [4], 1 µg/mL (≈ 2.71 µM). In addition, the MIC is 0.5 µg/mL (≈ 1.36 µM) with Staphylococcus aureus [5], no more than 0.063 µg/mL with Streptococcus pneumoniae [8], 8 µg/mL (≈ 21.7 µM) with Moraxella catarrhalis and 8 µg/mL (≈ 21.7 µM) in the series with Staphylococcus aureus [10]. Besides, the ED50 in the series on Staphylococcus aureus [2] is 3.17 mg/kg; with Staphylococcus aureus [9], 3.05 mg/kg. The Ratio came to 2 in the series on Staphylococcus aureus [6] and 4 in the series on Staphylococcus aureus [7].
Turning to `O=C1O[C@@H](Cn2ccnn2)CN1c1ccc(-c2ccc3ncnn3c2)c(F)c1`, the MIC in the series with Haemophilus influenzae was 4 µg/mL (≈ 10.5 µM); in the series with Staphylococcus aureus [1], 0.25 µg/mL (≈ 0.659 µM); in the series on Enterococcus faecium it was 0.25 µg/mL (≈ 0.659 µM); with Enterococcus faecalis, 0.5 µg/mL (≈ 1.32 µM); in the series on Streptococcus pneumoniae [3], no more than 0.063 µg/mL; in the series with Staphylococcus aureus [4] it was 0.5 µg/mL (≈ 1.32 µM). The MIC was 0.25 µg/mL (≈ 0.659 µM) with Staphylococcus aureus [5], no more than 0.063 µg/mL in the series on Streptococcus pneumoniae [8], 8 µg/mL (≈ 21.1 µM) with Moraxella catarrhalis and 8 µg/mL (≈ 21.1 µM) with Staphylococcus aureus [10].
For `O=C1O[C@@H](Cn2ccnn2)CN1c1ccc(-c2ccc3nccn3c2)c(F)c1`, the MIC in the series on Haemophilus influenzae is 4 µg/mL (≈ 10.6 µM); in the series with Staphylococcus aureus [1], 0.25 µg/mL (≈ 0.661 µM); in the series with Enterococcus faecium it was 0.5 µg/mL (≈ 1.32 µM); in the series with Enterococcus faecalis, 0.5 µg/mL (≈ 1.32 µM); in the series on Streptococcus pneumoniae [3] it was no more than 0.063 µg/mL; with Staphylococcus aureus [4], 0.5 µg/mL (≈ 1.32 µM). Besides, the MIC was 0.25 µg/mL (≈ 0.661 µM) in the series with Staphylococcus aureus [5], no more than 0.063 µg/mL in the series with Streptococcus pneumoniae [8], 4 µg/mL (≈ 10.6 µM) in the series on Moraxella catarrhalis and 4 µg/mL (≈ 10.6 µM) with Staphylococcus aureus [10].
The term IC50 denotes the concentration needed to halve the response being measured. For orientation: inhibition means the share of the control response that was lost under treatment. On to `O=C1O[C@@H](Cn2ccnn2)CN1c1ccc(-c2ccn3ncnc3c2)c(F)c1`, for which the IC50 at Cytochrome P450 2C9, at Cytochrome P450 3A4, at Cytochrome P450 1A2 and at Cytochrome P450 2D6 was greater than 20 µM in each case. For the same compound, the MIC in the series with Haemophilus influenzae was 2 µg/mL (≈ 5.27 µM); in the series with Staphylococcus aureus [1], 0.125 µg/mL (≈ 0.33 µM); in the series on Enterococcus faecium, 0.25 µg/mL (≈ 0.659 µM); in the series on Enterococcus faecalis it was 0.25 µg/mL (≈ 0.659 µM); with Streptococcus pneumoniae [3], no more than 0.063 µg/mL; with Staphylococcus aureus [4] it was 0.25 µg/mL (≈ 0.659 µM). Besides, the MIC is 0.25 µg/mL (≈ 0.659 µM) with Staphylococcus aureus [5], no more than 0.063 µg/mL with Streptococcus pneumoniae [8], 4 µg/mL (≈ 10.5 µM) in the series with Moraxella catarrhalis and 2 µg/mL (≈ 5.27 µM) in the series with Staphylococcus aureus [10]. Besides, the inhibition at 5 min, 30 µM on MAO-A came to 33.2%. The same compound registered an inhibition at 10 min, 30 µM at MAO-B of 27.9%. Also, the ED50 in the series with Staphylococcus aureus [9] was 0.95 mg/kg.
As for `CC(=O)NC[C@H]1CN(c2ccc(-c3ccn4ccnc4c3)c(F)c2)C(=O)O1`, the IC50 on Cytochrome P450 2C9, at Cytochrome P450 3A4, at Cytochrome P450 1A2 and at Cytochrome P450 2D6 was greater than 20 µM each time. For the same compound, the MIC in the series with Haemophilus influenzae is 2 µg/mL (≈ 5.43 µM); with Staphylococcus aureus [1], 0.25 µg/mL (≈ 0.679 µM); in the series on Enterococcus faecium it was 0.5 µg/mL (≈ 1.36 µM); in the series on Enterococcus faecalis, 0.25 µg/mL (≈ 0.679 µM); in the series on Streptococcus pneumoniae [3] it was no more than 0.063 µg/mL; in the series with Staphylococcus aureus [4] it was 0.25 µg/mL (≈ 0.679 µM). Besides, the MIC in the series with Staphylococcus aureus [5] is 0.25 µg/mL (≈ 0.679 µM); in the series with Streptococcus pneumoniae [8] it was no more than 0.063 µg/mL; in the series with Moraxella catarrhalis, 2 µg/mL (≈ 5.43 µM); with Staphylococcus aureus [10] it was 2 µg/mL (≈ 5.43 µM). Further, the inhibition at 5 min, 30 µM on MAO-A was 54.8%. The ED50 in the series on Staphylococcus aureus [2] was found to be 1.09 mg/kg; with Staphylococcus aureus [9], 1.05 mg/kg. At MAO-B, this compound registered an inhibition at 10 min, 30 µM of 52.8%. Further, the Ratio in the series on Staphylococcus aureus [6] and in the series on Staphylococcus aureus [7] was 8 throughout.

The values are drawn from ChEMBL document CHEMBL3091359, “Potent oxazolidinone antibacterials with heteroaromatic C-ring substructure” (ACS Med Chem Lett, 2013).
